In one data set the test system is ICR mice. Briefly: In vivo pharmacodynamic test in the forced swimming model in mice. To be noted: for immobility time during the latter four minutes compared with that of the model group: 10 mg/kg p.o.; for Mean (immobility, %) / Mean (immobility, s): 10 mpk p.o.; for Mean (immobility, %): floating time percentage = 100*floating time/240 s; for Mean (immobility, s): latter four minutes of 6 min swim. Here is the method: The antidepressant effect of the compound was evaluated by the forced swimming model in mice.
Male ICR mice (25-35 g) were adapted in the test environment for 3 days before the forced swimming test.
According to the test design, the mice were randomly grouped on the day before the test according to body weight, with 12 mice in each group. Before the test, the compounds of each example were administrated intragastrically according to the Tmax thereof in the brain in mice pharmacokinetic test as follows:
1) Model group (0.5% CMC-Na+1% Tween 80 solution, p.o., 10 mL/kg);
2) Compounds of Example 2, Example 5, Example 7, Example 18, Example 23, Example 26 and Example 50 (10 mg/kg, p.o., 10 mL/kg).
When being administrated, the compounds of each example were suspended in 0.5% CMC-Na-1% Tween 80 solution to the desired concentration.
0.5-1 hour after administration, ICR mice were placed in a forced swimming device (transparent glass drum (water depth 18 cm, water temperature 25-26° C.), one mouse per tank) and forced to swim for 6 minutes. The forced swimming device recorded the floating time of the ICR mice during the entire 6 minutes, and the data of the latter four minutes were used for data analysis. The mice were taken out immediately after the swimming test, wiped dry and put back in their original cages.
Note: The criterion for determining the immobility time is that the mouse stops struggling in water and floats, and there are only slight limb movements to keep the head floating on the water.
3.4 Data Analysis Floating time percentage=100*floating time/240 s.

Data set [1] is described as follows: Pharmacokinetic assay in Balb/c mice (plasma and brain tissue). To be noted: male, mouse, po. Type of data set: in vivo. As for the experimental part:
Balb/c mice were used as test animals. The pharmacokinetic behavior in mice (plasma and brain tissue) of the compounds of Example 2, Example 5, Example 7, Example 12, Example 18, Example 23, Example 26, Example 38, Example 41, Example 50, Example 51 and Example 66 orally administrated at a dose of 5 mg/kg was studied.
Each group had 24 male Balb/c mice. After an overnight fast, Balb/c mice were administrated p.o. with the test compound at an administration dose of 5 mg/kg and an administration volume of 10 mL/kg.
0.2 ml of blood was taken from the heart before administration and at 0, 0.5, 1, 2, 4, 6, 8 and 24 hours after administration. The samples were stored in EDTA-K2 tubes, and centrifuged for 6 minutes at 4° C., 6000 rpm to separate the plasma. The plasma samples were stored at −80° C. The mice were sacrificed with CO2, and the whole brain tissue was taken out, weighed, placed in a 2 mL centrifuge tube and stored at −80° C.
1) 160 μL of acetonitrile was added to 40 μL of the plasma sample for precipitation, and then the mixture was centrifuged for 5-20 minutes at 3500×g.
2) 90 μL of acetonitrile containing the internal standard (100 ng/mL) was added to 30 μL of the plasma and brain homogenate samples for precipitation, and then the mixture was centrifuged for 8 minutes at 13000 rpm.
3) 70 μL of the treated supernatant was taken and added to 70 μL of water, and mixed by vortex for 10 minutes. 20 μL of the mixture was taken to analyze the concentration of the test compound by LC/MS/MS. LC/MS/MS analysis instrument: AB Sciex API 4000 Qtrap.
2.6 Liquid Chromatography Analysis • Liquid chromatography condition: Shimadzu LC-20AD pump. • Chromatographic column: Agilent ZORBAX XDB-C18 (50×2.1 mm, 3.5 μm); Mobile phase: Eluent A was 0.1% formic acid in water, and Eluent B was acetonitrile. • Flow rate: 0.4 mL/min • Elution time: 0-4.0 minutes the eluent is as follows:
The main parameters of pharmacokinetics were calculated by WinNonlin 6.1.

[2] abbreviates: Balb/c, in vivo, 5 mg/kg, Area under curve AUC0-t.
[3] abbreviates: Balb/c, in vivo, 5 mg/kg, Half-life t1/2.
Setting [4] is: Balb/c, in vivo, 5 mg/kg, Mean residence time MRT.
[5] abbreviates: Balb/c, in vivo, 5 mg/kg, Peak time tmax.
Setting [6] is: Balb/c, in vivo, 5 mg/kg, Plasma concentration Cmax.

The structures appear in SMILES notation. Read-outs that look alike come from different tables or passages of the source.

Turning to `C[C@@]1(O)CC[C@@]2(F)[C@H](CC[C@H]3[C@@H]4CC[C@H](C(=O)Cn5cc(C#N)cn5)[C@@]4(C)CC[C@@H]32)C1` [Example 2, 1-(2-((3R,5R,8S,9S,10R,13S,14S,17S)-10-Fluoro-3-hydroxy-3,13-dimethylhexadecahydro-1H-cyclopenta[a]phenanthren-17-yl)-2-oxoethyl)-1H-pyrazole-4-carbonitrile], in the data set on ICR mice, the “immobility time during the latter four minutes compared with that of the model group” value is “significantly different”. The “Mean (immobility, %)” value in the data set on ICR mice was 36.39%. For the same compound, the “Mean (immobility, s)” value in the data set with ICR mice is recorded as 87.34 s. Moreover, the AUC(0-t) worked out at 1770 ng·h/mL in data set [1] (Balb/c, brain, 5 mg/kg, Balb/c mice, 5 mg/kg p.o., brain tissue, read-out: Area under curve AUC0-t) and 2660 ng·h/mL in data set [1] (Balb/c, plasma, 5 mg/kg, Balb/c mice, 5 mg/kg p.o., plasma, read-out: Area under curve AUC0-t). Besides, the AUC(0-inf) in data set [1] (Balb/c, brain, 5 mg/kg, Balb/c mice, 5 mg/kg p.o., brain tissue, read-out: Area under curve AUC0-∞) was 1790 ng·h/mL; in data set [1] (Balb/c, plasma, 5 mg/kg, Balb/c mice, 5 mg/kg p.o., plasma, read-out: Area under curve AUC0-∞) it was 2710 ng·h/mL. Moreover, the half-life in data set [1] (Balb/c, brain, 5 mg/kg, Balb/c mice, 5 mg/kg p.o., brain tissue, read-out: Half-life t1/2 (converted)) was 89.4 min; in data set [1] (Balb/c, plasma, 5 mg/kg, Balb/c mice, 5 mg/kg p.o., plasma, read-out: Half-life t1/2 (converted)) it was 89.4 min. Moreover, the MRT in data set [1] (Balb/c, brain, 5 mg/kg, Balb/c mice, 5 mg/kg p.o., brain tissue, read-out: Mean residence time MRT) stood at 2.26 h; in data set [1] (Balb/c, plasma, 5 mg/kg, Balb/c mice, 5 mg/kg p.o., plasma, read-out: Mean residence time MRT), 2.49 h. The Cmax came to 655 ng/mL in data set [1] (Balb/c, brain, 5 mg/kg, Balb/c mice, 5 mg/kg p.o., brain tissue, read-out: Plasma concentration Cmax) and 846 ng/mL in data set [1] (Balb/c, plasma, 5 mg/kg, Balb/c mice, 5 mg/kg p.o., plasma, read-out: Plasma concentration Cmax). The Tmax in data set [1] (Balb/c mice, 5 mg/kg p.o., brain tissue, read-out: Peak time tmax) turned out to be 60 min; in data set [1] (Balb/c mice, 5 mg/kg p.o., plasma, read-out: Peak time tmax), 60 min.
Consider `C[C@@]1(O)CC[C@@]2(F)[C@H](CC[C@H]3[C@@H]4CC[C@H](C(=O)Cn5ccc(C(F)(F)F)n5)[C@@]4(C)CC[C@@H]32)C1` [Example 5, 1-((3R,5R,8S,9S,10R,13S,14S,17S)-10-Fluoro-3-hydroxy-3,13-dimethylhexadecahydro-1H-cyclopenta[a]phenanthren-17-yl)-2-(3-(trifluoromethyl)-1H-pyrazol-1-yl)ethan-1-one], for which, in the data set with ICR mice, the “immobility time during the latter four minutes compared with that of the model group” value is given as “very significantly different”; the “Mean (immobility, %)” value was 27.11%; the “Mean (immobility, s)” value is on record as 65.07 s. In data set [1] (Balb/c, in vivo, 5 mg/kg), the “Area under curve AUC0-t” value is 470.9 ng·h/mL, the “Area under curve AUC0-∞” value was found to be 485.5 ng·h/mL, the “Half-life t1/2” value is 0.94 h and the “Mean residence time MRT” value was 1.74 h. The “Plasma concentration Cmax” value in data set [1] (Balb/c, in vivo, 5 mg/kg) came to 233.7 ng/mL. For the same compound, the AUC(0-t) in data set [1] (setting [2]) turned out to be 515 ng·h/mL. Further, the AUC(0-inf) in data set [1] (Balb/c, in vivo, 5 mg/kg, Area under curve AUC0-∞) worked out at 524 ng·h/mL. In data set [1] (setting [3]), this compound showed a half-life of 69.6 min. The compound further registered an MRT in data set [1] (setting [4]) of 1.94 h. Also, in data set [1] (setting [5]), the Tmax was determined as 30 min. This compound had a Cmax in data set [1] (setting [6]) of 242 ng/mL.
For the compound `C[C@@]1(O)CC[C@@]2(F)[C@H](CC[C@H]3[C@@H]4CC[C@H](C(=O)CNc5ccc(F)cc5)[C@@]4(C)CC[C@@H]32)C1` [Example 23, 1-((3R,5R,8S,9S,10R,13S,14S,17S)-10-Fluoro-3-hydroxy-3,13-dimethylhexadecahydro-1H-cyclopenta[a]phenanthren-17-yl)-2-((4-fluorophenyl)amino)ethan-1-one], in the data set with ICR mice, the “immobility time during the latter four minutes compared with that of the model group” value is recorded as “very significantly different”; the “Mean (immobility, %)” value was found to be 28.55%; the “Mean (immobility, s)” value is listed as 68.51 s. In data set [1] (Balb/c, in vivo, 5 mg/kg), the “Area under curve AUC0-t” value was 1067.1 ng·h/mL, the “Half-life t1/2” value turned out to be 1.36 h, the “Mean residence time MRT” value turned out to be 2.42 h and the “Plasma concentration Cmax” value is given as 558.0 ng/mL. Besides, the AUC(0-t) in data set [1] (setting [2]) stood at 545 ng·h/mL. In addition, the half-life in data set [1] (setting [3]) is 64.8 min. In data set [1] (setting [4]), the MRT was 1.78 h. In data set [1] (setting [5]), the Tmax was determined as 30 min. The compound further had a Cmax in data set [1] (setting [6]) of 408 ng/mL.

Source of the values: US11661437B2, “Steroid derivative regulators, method for preparing the same, and uses thereof” (priority 2018, dated 2023).
